Patent US10138265B2, “Uridine nucleoside derivatives, compositions and methods of use” (Tufts University, priority 2013, dated 2018)
Where two headings read alike, the source gives them in different places.

Assays:
[1] = biological target: T1, P2Y4 receptor (Homo sapiens, UniProt P51582); assay: Ca2+ mobilizing effect (fluo-4) in 1321N1 astrocytoma cells expressing P2Y4; format: cell-based; details: 1321N1 human astrocytoma cells expressing P2Y4
T1 construct: expressed in transfected cells; host or cells: 1321N1 human astrocytoma cells
T1 sequence (P51582 whole entry): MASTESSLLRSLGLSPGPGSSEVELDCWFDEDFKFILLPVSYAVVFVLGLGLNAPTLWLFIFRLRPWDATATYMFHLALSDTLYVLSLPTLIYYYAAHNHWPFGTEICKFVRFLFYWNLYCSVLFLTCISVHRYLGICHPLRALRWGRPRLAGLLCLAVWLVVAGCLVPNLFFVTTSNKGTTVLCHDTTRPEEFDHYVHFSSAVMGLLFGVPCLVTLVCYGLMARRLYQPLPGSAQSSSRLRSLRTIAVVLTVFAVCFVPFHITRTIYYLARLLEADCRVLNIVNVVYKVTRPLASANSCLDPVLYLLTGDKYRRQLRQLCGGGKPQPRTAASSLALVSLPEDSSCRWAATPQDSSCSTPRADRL
Description: (§1) Synthetic ligands were tested for activation of P2Y6 receptor by measuring receptor induced Ca^2+ changes with the fluorescent Ca^2+ indicator fluo-4. 1321N1 human astrocytoma cell lines either expressing P2Y2, P2Y4 or P2Y6 receptors were plated into 24-well plates. Two days after plating, fluorometric measurements were made and responses of cells to a serial dilution of ligands were determined P2Y6 receptor mediated Ca^2+ fluorescent change was determined by normalized accumulation of fluorescent change of 3 timepoints after ligand administration subtracted by value from ACSF control. Changes in fluorescent intensity were plotted corresponding to ligand concention in GraphPad. Dose-response curve and EC50 for each ligand was estimated using nonlinear curve fit and Sigmoidal dose-response analysis. […]
(§2) Synthetic ligands were tested for activation of P2Y6 receptor by measuring receptor induced Ca^2+ changes with the fluorescent Ca^2+ indicator fluo-4, and results are shown in FIG. 10(A)-(K). […] Two days after plating, fluorometric measurements were made and responses of cells to a serial dilution of ligands were determined P2Y6 receptor mediated Ca^2+ fluorescent change was determined by normalized accumulation of fluorescent change of 3 timepoints after ligand administration subtracted by value from ACSF control. […]

[2] = biological target: T2, P2Y2 receptor (Homo sapiens, UniProt P41231); assay: Ca2+ mobilizing effect (fluo-4) in 1321N1 astrocytoma cells expressing P2Y2; format: cell-based; details: 1321N1 human astrocytoma cells expressing P2Y2
T2 construct: expressed in transfected cells; host or cells: 1321N1 human astrocytoma cells
T2 sequence (P41231 whole entry): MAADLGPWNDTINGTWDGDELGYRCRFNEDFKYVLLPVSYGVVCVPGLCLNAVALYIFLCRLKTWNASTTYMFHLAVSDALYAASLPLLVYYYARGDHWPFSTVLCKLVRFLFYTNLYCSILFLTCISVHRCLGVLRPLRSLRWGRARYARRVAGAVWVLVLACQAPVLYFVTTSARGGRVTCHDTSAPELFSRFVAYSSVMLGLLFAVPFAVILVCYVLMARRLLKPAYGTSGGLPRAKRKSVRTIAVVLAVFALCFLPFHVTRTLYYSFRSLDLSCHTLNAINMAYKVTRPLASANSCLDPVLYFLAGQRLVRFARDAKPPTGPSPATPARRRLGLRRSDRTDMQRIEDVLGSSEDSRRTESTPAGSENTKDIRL
Description: as §1, §2

[3] = biological target: T3, P2Y6 receptor (Homo sapiens, UniProt Q15077); assay: Activation of P2Y6 receptor: receptor induced Ca2+ changes with fluo-4 in 1321N1 astrocytoma cells; format: cell-based; parameters: expressed in transfected cells; host or cells: 1321N1 human astrocytoma cells
T3 sequence (Q15077 whole entry): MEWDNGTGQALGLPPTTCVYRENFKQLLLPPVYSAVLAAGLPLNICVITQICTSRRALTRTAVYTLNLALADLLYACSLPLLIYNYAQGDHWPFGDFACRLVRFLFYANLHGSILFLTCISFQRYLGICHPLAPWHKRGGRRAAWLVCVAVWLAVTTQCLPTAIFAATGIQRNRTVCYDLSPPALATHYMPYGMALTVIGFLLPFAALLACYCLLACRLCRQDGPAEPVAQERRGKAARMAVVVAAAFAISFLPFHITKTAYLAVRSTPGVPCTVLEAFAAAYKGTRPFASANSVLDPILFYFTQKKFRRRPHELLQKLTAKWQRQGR
Description: as §1, §2

[4] = system: PSAPP mice; assay: Postmortem immunohistochemistry of plaque load in cortex and hippocampus; format: in vivo, mouse
Description: Mice were perfused transcardially with 4% paraformaldehyde and 40 μm Coronal sections were collected. Sections were sequentially incubated in 0.3% H2O2 for 10 minutes, blocking solution for 2 hrs, blocking solution containing the primary antibody (rabbit anti-beta 1-42; rabbit anti-beta1-40, from Chemicon International and rat anti-CD45) for 48 hours at 4° C., and blocking solution containing biotinylated antibody or fluorescently-labeled antibody for 2 hours at room temperature. Sections were visualized in a bright field microscope or a confocal microscope, and the optical density was obtained using MetaMorph software.
After repeated imaging, brains were fixed and subjected to postmortem immunohistochemistry with amyloid beta specific antibodies β1-40 and β1-42 to evaluate the plaque load (area occupied by immunostaining of plaque) in cortex and hippocampus.
(§3) PSB0474 was systemically administered to PSAPP mice via intraperitoneal injection for 2, 4 and 6 consecutive days. In one group, prior to evaluation and following to administration for 6 consecutive days, treatment was suspended for two weeks (6+2 weeks group). Brains were then fixed and plaque load was evaluated by immunostaining with the amyloid beta specific antibodies: β1-40 and β1-42. Representative images of plaque load in cortex and hippocampus from animals that received injections of PSB0474 according to the foregoing injection schedules are shown in FIG. 5(A)-(D). […] Whereas, when administration of PSB0474 was stopped for 2 weeks following six consecutive days of treatment (denoted as the 6+2 weeks group), β1-40 staining rebounded; although to a level lower than observed in mice treated with saline as a vehicle control. FIGS. 6A and 6B depict the reduction in plaque load (%) the cortex and hippocampus, respectively, in PSAPP mice after treatment with 3-phenacyl-UDP for 2, 4, or 6 consecutive days, as assayed by staining with the β1-40 antibody. FIGS. 6C-6F depict data obtained following administration of different dosages of PSB0474.
To generate these graphs showing plaque load, mice were euthanized, brain sections cut and antibodies directed against Aβ42 were used to disclose Aβ plaques. Images were acquired digitally and an algorithm was applied to threshold the image so that plaques were isolated from the background. The algorithm then calculated the percent area of the field of view occupied by the plaques.
Brain samples were collected for Abeta analysis with immunostaining. Brains samples were collected after transcardial perfusion with phosphate buffer and 4% paraformaldehyde. Floating brain sections (40 µm) were collected using a microtome. Immunostaining for Aβ40 and Aβ42 were performed according to previously established protocol. Images with DAB staining were collected with brightfield microscopy and analyzed with ImageJ Macro. All data analysis and statistics were performed in GraphPad Prism 6.0.

[5] = biological target: T3, P2Y6 receptor; details: cited from earlier work
[6] = system: PSAPP mice; assay: Contextual fear conditioning test (freezing behavior); format: in vivo, mouse
Description: On day one, animals were trained in a fear conditioning apparatus for a total of 7 minutes with a two-pairing paradigm of cue and mild foot shock (a 30-s acoustic-conditioned stimulus, 80 dB; a 2-s shock stimulus, 0.5 mA). To evaluate contextual fear learning, the animals were returned to the training context 24 hours post-training, and freezing behavior was scored for 5 minutes. Freezing behavior was monitored by MotorMonitor (Hamilton Kinder) and scored every 5 seconds.
In this study, the fear conditioning associative learning paradigm was used as a rapid cognition assay for PSAPP mice. This study allowed us to probe cognitive function with a single training day followed in 24 hours by tests for contextual and cued fear learning. Contextual fear learning is dependent upon a brain area that has been implicated as a locus for cognitive decline in AD: the hippocampus. Two pairings of CS—US for fear conditioning were followed 24 hours later by testing for contextual and cued fear learning. Previous studies have reported that PSAPP animals appear to have a selective hippocampus-dependent impairment in associative learning following two pairings of conditioned stimuli for fear conditioning.
This represents a decrease in the cognitive impairment observed in the untreated mice.

[7] = system: PSAPP mice; assay: Tolerability of a higher dose in the plaque burden study; format: in vivo, mouse; details: 1000× increase in dose
Description: as §3

[8] = system: PSAPP mice; assay: Two-photon in vivo imaging of methoxyX04 labeled amyloid plaques in barrel cortex; parameters: species or system mouse; details: acute i.c.v. treatment
From the text: In this study, PSAPP mice were anesthetized using isoflurane and a thin-skull preparation was used to minimize the surface damage. Amyloid plaques were visualized with methoxyX04 labeling and blood plasma was labeled with Rhodamine dextran to facilitate re-localization of the same imaging area. Stack images were obtained using a two-photon system (Prairie Technologies) with excitation at 850 nm. The emission was detected by external photomultiplier tubes (525/70; DLCP 575; 607/45 nm). Animals were anesthetized and immobilized in a stereotaxic frame. For each injection, 1 μl of 10 mM UDP or other suitable compounds in artificial cerebrospinal fluid (ACSF) as the vehicle were injected intraventricularly using the following coordinates: AP 0.2 mm, ML 1 mm, and DV 2.2 mm. To evaluate the effect of UDP on plaque burden, two-photon microscopy was used to assess the amyloid plaques in the barrel cortex in living PSAPP mice. Amyloid plaques were stained by systemically administered methoxy-[…]. One day prior to imaging, PSAPP mice were injected with methoxyX04 to label the amyloid plaques. On the imaging day, to facilitate the re-location of the same imaging area, blood plasma was labeled with Rhodamine dextran. Images were obtained from the same start- and end-point to ensure the same image volume. The results were shown in a maximum intensity projection of a fluorescent stack containing 45 planes. Representative images of methoxyX04 labeled amyloid plaques and angiopathy on days 1 are shown in FIG. 1(A)-(C) Immediately after imaging, animals were injected with ACSF or UDP intracerebroventricularly (i.c.v.) and allowed to recover. On day 4, animals were subjected to a second period of imaging of the same regions studied on day 1 and the results are shown in FIG. 1(D)-(F). The similar pattern of angiopathy (shown by open arrows) indicated the same imaging area.

[9] = system: PSAPP mice; assay: Hippocampal long-term potentiation (LTP) recording; format: in vivo, mouse; details: acute treatment
Description: Hippocampal slices (350 μm thick) were prepared from 6-month-old PSAPP mice. Baseline responses were obtained every 10 seconds and Input-output (I/O) curves, paired-pulse modification and LTP were successively measured. The stimulation intensity was set to a level that gives a value of 30% of the maximum obtained. LTP were induced by high frequency stimulation (HFS, 100 pulses at 100 Hz, four times) or by theta-burst stimulation (TBS, 10 bursts at 5 Hz, repeated 10 times in 15 s intervals).
Accumulated evidence has shown that amyloid peptides naturally secreted or isolated from Alzheimer's brains impair synaptic plasticity, especially hippocampal long-term potentiation (Walsh et al., 2002). Therefore, we further performed LTP recordings in PASPP mice and investigated whether P2Y6 receptor-mediated plaque clearance affects synaptic plasticity. […] First, it was observed that LTP at the schaffer collateral synapse within the CA1 region was depressed in PSAPP mice, as compared with littermates (FIG. 8(A)).

[10] = system: PSAPP mice; assay: Postmortem immunohistochemistry of plaque load in cortex and hippocampus; format: in vivo, mouse; remark: listed apart in the source
[11] = Half-life in human whole blood; format: in vitro ADME
[12] = Oral bioavailability; details: in vivo
[13] = barrel cortex, day 4 vs day 1, P<0.01
[14] = 10 ug/kg i.p. once per day for 7 days, PS1/APP mice, cortex

Structure (SMILES): O=c1ccn([C@@H]2O[C@H](COP(=O)(O)OP(=O)(O)O)[C@@H](O)[C@H]2O)c(=O)n1Cc1noc2ccccc12
- elevating Ca2+ levels in P2Y4 receptor expressing cells [1]: not effective
- elevating Ca2+ levels in P2Y2 receptor expressing cells [2]: not effective
- EC50 ([3]; 1321N1 human astrocytoma cells expressing P2Y6, fluo-4 Ca2+): 0.012 µM
- ability to elevate Ca2+ signals in P2Y6 receptor expressing cells on addition of P2Y6 antagonist MRS2578 ([3]; with MRS2578): attenuated

Structure (SMILES): O=C(Cn1c(=O)ccn([C@@H]2O[C@H](COP(=O)(O)OP(=O)(O)O)[C@@H](O)[C@H]2O)c1=O)c1ccccc1 [3-phenacyl-UDP]
- effects on the efficacy endpoint at the higher dose ([4]; 1 mg/kg, one week daily): smaller effects
- β1-40 staining after treatment stopped ([4]; 6 consecutive days i.p., then stopped for 2 weeks (6+2 weeks group), level lower than saline control): rebounded
- immunoreactivity of β1-40 in both cortex and hippocampus ([4]; i.p. for 4 and 6 consecutive days): significantly decreased
- selectivity for P2Y6 receptor [5]: > 500 fold
- EC50 ([5]; read-out: EC50, P2Y6 receptor agonist): 0.07 µM
- total freezing percentage in context test ([6]; chronic injection, two doses): increased
- detrimental effects to the animal [7]: did not cause detrimental effects

Structure (SMILES): O=c1ccn([C@@H]2O[C@H](COP(=O)(O)OP(=O)(O)O)[C@@H](O)[C@H]2O)c(=O)[nH]1 [UDP, uridine diphosphate]
- decrease in plaque load, cortex ([4]; β1-40 antibody staining, cortex, acute i.c.v., p<0.05): 60%
- decrease in plaque load, hippocampus ([4]; β1-40 antibody staining, hippocampus, acute i.c.v., p<0.01): 62%
- decrease in plaque load, cortex ([4]; β1-42 antibody staining, cortex, acute i.c.v., P<0.01): 48%
- reduction in plaque load [8, 13]: 17.2%
- reduction in the number of plaques [8, 13]: 12.6%
- reduction in cross-sectional area of individual identified plaques ([8]; second imaging session, P<0.01): 18.2%
- LTP at CA1 of hippocampus compared with ACSF ([9]; HFS): significantly increased
- field excitatory postsynaptic potential (fEPSP), last 15 min potentiation ([9]; comparable to littermates): significant increase
- decrease in plaque load, hippocampus ([10]; β1-42 antibody staining, hippocampus, acute i.c.v., P<0.05): 47%
- total freezing percentage ([6]; acute i.c.v. treatment, ACSF control 18%±3%): 49%±5%

Structure (SMILES): O=c1ccn([C@@H]2O[C@H](CO)[C@H](O)C2O)c(=O)n1Cc1noc2ccccc12 (some centres unmarked) [compound 5]
- size distribution of remaining plaques ([4]; 10 ug/kg i.p. once per day for 7 days, PS1/APP mice): significantly reduced
- Aβ42 plaque burden [4, 14]: significantly reduced
- half-life [11]: 16.4 h
- bioavailability [12]: 72.2%
- Aβ40 plaque burden [10, 14]: significantly reduced
